Laboratory results from patent US10947574B2, “Method for producing fermented carotenoid using carotenoid-producing bacteria obtained by using cobalt-containing culturing medium” (ENEOS CORPORATION, priority 2015, dated 2021).

Tested on: Paracoccus carotinifaciens strain E-396 (FERM BP-4283)
Format: cell-based
Details: each trace metal added singly at final concentration of Table 1; shaking at 28° C. for 4 days
Experimental: Subsequently, a medium of the following composition (glucose 30 g/L, filtered corn steep liquor 30 g/L, ammonium sulfate 1.5 g/L, potassium dihydrogen phosphate 1.5 g/L, disodium hydrogen phosphate dodecahydrate 3.8 g/L, calcium chloride dihydrate 5.0 g/L, magnesium sulfate heptahydrate 0.7 g/L, iron sulfate heptahydrate 1.0 g/L, silicon-based defoaming agent 0.2 g/L) was dispensed in 7.2 ml volumes into cotton-plugged test tubes having an inner diameter of 18 mm to prepare 13 test tubes containing a test tube medium for production. The ingredients used to prepare the test tube medium for production were obtained from lots where microbial cells had been confirmed not to grow well.
The 12 trace metals indicated in Table 1 were separately prepared in 0.8 ml volumes to have their final concentrations indicated in Table 1 and then added to the above 12 test tubes for production, respectively. The remaining one test tube was supplemented with 0.8 ml of ion exchanged water.
The resulting culture solution was then inoculated in 0.05 ml volumes into the 13 types of test tube media for production and cultured under shaking at 28° C. for 4 days at 300 spm.

| Structure (SMILES) | OD610 |
| --- | --- |
| O.O.O.O.O.O.[Cl][Cr]([Cl])[Cl] [Chromium (III) chloride hexahydrate] | 3 |
| O.O.[Na+].[Na+].[O]=[Mo](=[O])([O-])[O-] [Sodium molybdate dihydrate] | 4 |
| O=[Se](=O)(O)O [Sodium selenate] | 3 |
| OB(O)O [Boric acid] | 4 |
| [I-].[K+] [Potassium iodide] | 4 |
| [Na+].[Na+].[O]=[W](=[O])([O-])[O-] [Sodium tungstate] | 4 |
